PubChem BioAssay AID1963865 (Molecular Pharmacology Branch, DTP, NCI, 2024)

Test system: KRAS PDC multicell spheroid viability
Test: Anticancer human tumor 825966-067-R-J1-PDC patient-derived colon carcinoma cell line growth inhibition [KRAS2]
Conditions: for IC50: curve of first compound; for viability, T/C: stronger effect = lower value
How it was run: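 KRAS-mutant tumor cells were grown as spheroids with HUVEC endothelial cells and human MSCs as stroma. Targeted agents were tested alone and with KRAS pathway inhibitors. Doses started at or near clinical Cmax, or 10 microM, descending half-log.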

[1] = second compound 0.1 µM, first compound 0.0316 µM
[2] = second compound 0.1 µM, first compound 0.1 µM
[3] = second compound 0.1 µM, first compound 0.316 µM
[4] = second compound 0.1 µM, first compound 1 µM
[5] = second compound 0.1 µM, first compound 3.16 µM
[6] = second compound 0.1 µM, first compound 10 µM
[7] = second compound 0.316 µM, first compound 0.0316 µM
[8] = second compound 0.316 µM, first compound 0.1 µM
[9] = second compound 0.316 µM, first compound 0.316 µM
[10] = second compound 0.316 µM, first compound 1 µM
[11] = second compound 0.316 µM, first compound 3.16 µM
[12] = second compound 0.316 µM, first compound 10 µM
[13] = second compound 1 µM, first compound 0.0316 µM
[14] = second compound 1 µM, first compound 0.1 µM
[15] = second compound 1 µM, first compound 0.316 µM
[16] = second compound 1 µM, first compound 1 µM
[17] = second compound 1 µM, first compound 3.16 µM
[18] = second compound 1 µM, first compound 10 µM
[19] = second compound 3.16 µM, first compound 0.0316 µM
[20] = second compound 3.16 µM, first compound 0.1 µM
[21] = second compound 3.16 µM, first compound 0.316 µM
[22] = second compound 3.16 µM, first compound 1 µM
[23] = second compound 3.16 µM, first compound 3.16 µM
[24] = second compound 3.16 µM, first compound 10 µM
[25] = second compound 10 µM, first compound 0.0316 µM
[26] = second compound 10 µM, first compound 0.1 µM
[27] = second compound 10 µM, first compound 0.316 µM
[28] = second compound 10 µM, first compound 1 µM
[29] = second compound 10 µM, first compound 3.16 µM
[30] = second compound 10 µM, first compound 10 µM
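Note: spheroids exposed to compounds for 7 days.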
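Throughout, for viability, T/C: 100% = DMSO vehicle control viability.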

| Structure (SMILES) | IC50 (second compound 0.1 µM) [µM] | IC50 (second compound 0.316 µM) [µM] | IC50 (second compound 1 µM) [µM] | IC50 (second compound 3.16 µM) [µM] | IC50 (second compound 10 µM) [µM] | viability, T/C [1] [%] | viability, T/C [2] [%] | viability, T/C [3] [%] | viability, T/C [4] [%] | viability, T/C [5] [%] | viability, T/C [6] [%] | viability, T/C [7] [%] | viability, T/C [8] [%] | viability, T/C [9] [%] | viability, T/C [10] [%] | viability, T/C [11] [%] | viability, T/C [12] [%] | viability, T/C [13] [%] | viability, T/C [14] [%] | viability, T/C [15] [%] | also measured |
| --- | --- | --- | --- | --- | --- | --- | --- | --- | --- | --- | --- | --- | --- | --- | --- | --- | --- | --- | --- | --- | --- |
| O=C(c1cc(Cc2n[nH]c(=O)c3ccccc23)ccc1F)N1CCN(C(=O)C2CC2)CC1 + CC1OCC2(CCN(c3cnc(Sc4ccnc(N)c4Cl)c(N)n3)CC2)C1N | > 10 | > 10 | > 10 | > 10 | 0.985 | 78.2 | 67.3 | 82 | 71.1 | 80.6 | 81.4 | 79.2 | 76.2 | 92.6 | 67.6 | 85 | 86.6 | 77.8 | 91.5 | 75.7 | viability, T/C [16]: 68%; viability, T/C [17]: 62.5%; viability, T/C [18]: 82.2%; viability, T/C [19]: 105%; viability, T/C [20]: 109%; viability, T/C [21]: 95.1%; viability, T/C [22]: 102%; viability, T/C [23]: 102%; viability, T/C [24]: 78.1%; viability, T/C [25]: 104%; viability, T/C [26]: 89.2%; viability, T/C [27]: 77.5%; viability, T/C [28]: 54.9%; viability, T/C [29]: 17.4%; viability, T/C [30]: 17.6% |
| CC1(C)CCC(CN2CCN(c3ccc(C(=O)NS(=O)(=O)c4ccc(NCC5CCOCC5)c([N+](=O)[O-])c4)c(Oc4cnc5[nH]ccc5c4)c3)CC2)=C(c2ccc(Cl)cc2)C1 + C=CC(=O)N1CCN(c2nc(=O)n(-c3c(C)ccnc3C(C)C)c3nc(-c4c(O)cccc4F)c(F)cc23)C(C)C1 | 2.02 | 2.19 | 2.07 | 1.77 | 1.9 | 90.5 | 99.3 | 115 | 95.9 | 20.8 | 6.39 | 93.6 | 86.6 | 103 | 94.7 | 29.2 | 5.85 | 102 | 108 | 81.2 | viability, T/C [16]: 104%; viability, T/C [17]: 21.3%; viability, T/C [18]: 1.24%; viability, T/C [19]: 76.4%; viability, T/C [20]: 103%; viability, T/C [21]: 102%; viability, T/C [22]: 81.1%; viability, T/C [23]: 18.2%; viability, T/C [24]: 2.96%; viability, T/C [25]: 89.7%; viability, T/C [26]: 98.1%; viability, T/C [27]: 107%; viability, T/C [28]: 110%; viability, T/C [29]: 9.64%; viability, T/C [30]: 1.37% |
| CC(C)NCC(C(=O)N1CCN(c2ncnc3c2C(C)CC3O)CC1)c1ccc(Cl)cc1 (stereo not given) + C=CC(=O)N1CCN(c2nc(=O)n(-c3c(C)ccnc3C(C)C)c3nc(-c4c(O)cccc4F)c(F)cc23)C(C)C1 | 2.27 | 1.64 | 1.47 | 1.6 | 0.235 | 105 | 139 | 155 | 93.6 | 35.2 | 10.4 | 104 | 127 | 136 | 73.7 | 26.6 | 10.6 | 88.7 | 121 | 120 | viability, T/C [16]: 69%; viability, T/C [17]: 16.9%; viability, T/C [18]: 6.64%; viability, T/C [19]: 97.2%; viability, T/C [20]: 130%; viability, T/C [21]: 110%; viability, T/C [22]: 68.5%; viability, T/C [23]: 23.6%; viability, T/C [24]: 9.85%; viability, T/C [25]: 76.2%; viability, T/C [26]: 150%; viability, T/C [27]: 27.9%; viability, T/C [28]: 14.5%; viability, T/C [29]: 6.65%; viability, T/C [30]: 2.19% |
